Converted amounts (≈) assume the structure as drawn.

The assay concerns lymphocytic leukemia P388 cells. Put plainly: screening of cytostatic activity using lymphocytic leukemia P388 cells. The class given is cell-based. From the text:
The screening of cytostatic activity was made using lymphocytic leukemia P388 cells.

`CC[C@H](C)[C@@H]([C@@H](CC(=O)N1CCC[C@H]1[C@H](OC)[C@@H](C)C(=O)N[C@@H](Cc1ccccc1)c1nccs1)OC)N(C)C(=O)[C@@H](NC(=O)[C@H](C(C)C)N(C)C)C(C)C` [Dolastatin 10] yielded an ED50 of 0.7 ng/mL (≈ 0.892 nM).

Source of the values: patent publication US5654399A, “Tetrapeptide derivative having antitumor activity” (Teikoku Hormone Mfg. Co., Ltd., priority 1991, dated 1997).
